Assay results published in US20230285397A1, “EGFR INHIBITOR” (TAIHO PHARMACEUTICAL CO., LTD., priority 2020, published 2023).

Assays:
[1] = Evaluation of oral absorbability; format: in vivo; settings: BALB/cA mice, 50 mg/kg/day
Experimental: The compound of the present invention was suspended or dissolved in 0.5% HPMC aqueous solution and 0.1 N hydrochloric acid, and the obtained suspension or solution was orally administered to BALB/cA mice (CLEA Japan, Inc.) at a dose of 50 mg/kg/day. At 0.5, 1, 2, 4 and 6 hours after completion of the oral administration, blood was collected from the facial vein over time, so as to obtain plasma. The concentration of the compound in the obtained plasma was measured by LC-MS/MS, and the oral absorbability of the present compound was evaluated.

[2] = Evaluation of brain penetration properties; format: in vivo; settings: BALB/cA mice, oral, 50 mg/kg/day, 0.5 hours
Experimental: The compound of the present invention was suspended or dissolved in 0.5% HPMC aqueous solution and 0.1 N hydrochloric acid, and the obtained suspension or solution was orally administered to BALB/cA mice (CLEA Japan, Inc.) at a dose of 50 mg/kg/day. At 0.5 hours after completion of the oral administration, blood was collected from the facial vein, and whole brain was then excised, so as to obtain plasma and brain samples. Water was added to the obtained brain sample in 3 times the volume of the brain sample, and the resultant was then homogenized using an ultrasonic homogenizer, so as to obtain a brain homogenate. The concentration of the compound in the obtained plasma and brain homogenate was measured by LC-MS/MS, and the brain penetration properties of the present compound were evaluated from the brain/plasma concentration of the compound.

[3] = tested on: H1975-EGFRinsSVD cell line; assay: Antitumor effect confirmation test (in vivo) on subcutaneous transplantation models; set-up: species or system nude mouse (BALB/cAJcl-nu/nu); settings: Examples 2, 11 and 12 orally at 25, 25 and 50 mg/kg/day, Days 1-14; Dunnett test P<0.001
Experimental: When the tumor volumes of nude mice having tumor engraftment became on the order of 100 to 200 mm^3, the mice were assigned to groups each involving 6 animals by random stratification such that the average tumor volume was equal among the groups.
The test compound used was the compounds of Examples 2, 11, and 12, and a 0.5% HPMC aqueous solution was used as a control. The compounds of Examples 2, 11 and 12 were orally administered at doses of 25 mg/kg/day, 25 mg/kg/day and 50 mg/kg/day, respectively.
Each test compound or the control was orally administered every day for 14 days (Days 1-14) from the day following the grouping.
To compare the transition of tumor growth over time by the administration of each test compound, a tumor volume (which is also referred to as “TV” below) was measured at a frequency of twice a week over time. […] A body weight change percentage is also referred to as “BWC” below.
BWCn(%)=((body weight on n^th day)−(body weight on grouping day)]/[(body weight on grouping day)×100

EGFR [D770_N771insNPG] = target: T1, EGFR [D770_N771insNPG] (Homo sapiens, UniProt P00533, INS772GNP); assay: Phosphorylation activity inhibitory effect (in vitro), kinase assay at Carna Biosciences; format: biochemical; settings: ATP near Km
T1 construct: fused on or other part: Probably an N-terminal GST tag (Carna product)
T1 sequence (P00533 with tags, fused parts or gaps INS772GNP): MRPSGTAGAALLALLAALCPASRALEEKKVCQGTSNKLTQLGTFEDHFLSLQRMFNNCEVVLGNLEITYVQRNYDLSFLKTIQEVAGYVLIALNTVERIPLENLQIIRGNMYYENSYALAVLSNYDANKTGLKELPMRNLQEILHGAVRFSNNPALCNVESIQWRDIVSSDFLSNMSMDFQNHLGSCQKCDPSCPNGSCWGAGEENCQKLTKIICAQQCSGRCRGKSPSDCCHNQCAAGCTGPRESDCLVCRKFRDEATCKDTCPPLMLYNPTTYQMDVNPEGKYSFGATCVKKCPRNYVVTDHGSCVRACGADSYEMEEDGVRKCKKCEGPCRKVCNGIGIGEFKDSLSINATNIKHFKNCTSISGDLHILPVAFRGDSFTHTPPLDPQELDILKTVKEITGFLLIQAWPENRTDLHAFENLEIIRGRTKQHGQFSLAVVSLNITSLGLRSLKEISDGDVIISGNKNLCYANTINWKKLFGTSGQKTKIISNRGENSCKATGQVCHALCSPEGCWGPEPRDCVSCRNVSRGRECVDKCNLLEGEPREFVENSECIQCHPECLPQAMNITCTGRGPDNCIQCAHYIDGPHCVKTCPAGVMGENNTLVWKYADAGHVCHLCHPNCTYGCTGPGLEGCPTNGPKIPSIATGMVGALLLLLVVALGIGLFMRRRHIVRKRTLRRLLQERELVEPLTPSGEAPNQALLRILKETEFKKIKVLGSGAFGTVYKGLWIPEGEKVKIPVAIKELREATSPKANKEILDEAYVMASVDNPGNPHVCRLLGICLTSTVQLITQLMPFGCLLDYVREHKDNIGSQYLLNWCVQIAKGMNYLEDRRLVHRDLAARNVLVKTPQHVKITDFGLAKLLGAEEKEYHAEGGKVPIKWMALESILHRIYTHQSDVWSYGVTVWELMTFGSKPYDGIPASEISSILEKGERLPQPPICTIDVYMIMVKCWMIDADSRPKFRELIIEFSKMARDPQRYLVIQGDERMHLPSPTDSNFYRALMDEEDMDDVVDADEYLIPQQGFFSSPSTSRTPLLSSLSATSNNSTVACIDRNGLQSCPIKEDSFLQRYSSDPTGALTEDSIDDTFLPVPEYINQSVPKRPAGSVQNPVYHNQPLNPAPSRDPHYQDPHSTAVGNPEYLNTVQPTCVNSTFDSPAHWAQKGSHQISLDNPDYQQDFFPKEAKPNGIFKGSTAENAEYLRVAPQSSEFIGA
Experimental: The measurement of the in vitro inhibitory activity of a compound against wild-type and mutant EGFR was outsourced to Carna Biosciences, Inc. (Kinase Profiling Book, https://www.carnabio.com/japanese/product/search.cgi?mode=profiling).
Specifically, first, the compound of the present invention was diluted stepwise with dimethyl sulfoxide (DMSO). […] To the reaction solution, Termination Buffer was added, so as to terminate the kinase reaction. Finally, using LabChip™ EZ Reader II (PerkinElmer), an unphosphorylated substrate peptide (S) and a phosphorylated peptide (P) were separated and detected according to microchannel capillary electrophoresis.

| SMILES | Attenuation of oral absorbability relative to the compound of the present invention [1] | Attenuation of brain concentration relative to the compound of the present invention [2] | Antitumor effect: tumor volume (TV) on Day 15 compared with the control group [3] | IC50 (EGFR [D770_N771insNPG]) [nM] |
| --- | --- | --- | --- | --- |
| C=CC(=O)N1C[C@H](n2nc(C(=O)Nc3ccc(CC(=O)N(C)C)c(C)c3C)c3c(N)ncnc32)C[C@@H]1C [Comparative Example 2, 1-((3R,5S)-1-acryloyl-5-methylpyrrolidin-3-yl)-4-amino-N-(4-(2-(dimethylamino)-2-oxoethyl)-2,3-dimethylphenyl)-1H-pyrazolo[3,4-d]pyrimidine-3-carboxamide] | more than 4 times | more than 80 times | – | – |
| C=CC(=O)N1C[C@H](n2c(C#CC)c(C(=O)N[C@H](C)c3ccccc3)c3c(N)ncnc32)C[C@@H]1C [Example 2, 7-((3R,5S)-1-acryloyl-5-methylpyrrolidin-3-yl)-4-amino-N—((R)-1-phenylethyl)-6-(prop-1-yn-1-yl)-7H-pyrrolo[2,3-d]pyrimidine-5-carboxamide] | – | – | excellent antitumor effects | – |
| C=CC(=O)N1C[C@H](n2c(C#CC(C)(C)C)c(C(=O)N[C@H](C)c3ccccc3)c3c(N)ncnc32)C[C@@H]1C [Example 12, 7-((3R,5S)-1-acryloyl-5-methylpyrrolidin-3-yl)-4-amino-6-(3,3-dimethylbut-1-yn-1-yl)-N—((R)-1-phenylethyl)-7H-pyrrolo[2,3-d]pyrimidine-5-carboxamide] | – | – | excellent antitumor effects | – |
| C=CC(=O)N1C[C@H](n2c(C#CC3CC3)c(C(=O)N[C@H](C)c3ccccc3)c3c(N)ncnc32)C[C@@H]1C [Example 11, 7-((3R,5S)-1-acryloyl-5-methylpyrrolidin-3-yl)-4-amino-6-(cyclopropylethynyl)-N—((R)-1-phenylethyl)-7H-pyrrolo[2,3-d]pyrimidine-5-carboxamide] | – | – | excellent antitumor effects | 0.55 |
